Measurements as given in PubChem BioAssay AID330 (DTP/NCI, 2004).
Several values for one entry are separate records, joined by “and”; a condition that tells them apart may be missing. Equal values may be shown once. Toxic doses and inconclusive results are not listed.

Test system: P388 leukemia ip, CD2F1 mice, survival T/C
Assay: NCI In Vivo Anticancer Drug Screen. Data for tumor model P388 Leukemia (intraperitoneal) in CD2F1 (CDF1) mice
Details: endpoint: median survival time, higher = longer survival
Method in brief: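 Mice carrying the transplanted tumor received test compound or vehicle. Survival was recorded in each group, and the value is the treated-group measurement divided by that of the vehicle-treated control group.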

[1] = dose: 60.0 mg/kg/injection, schedule: Q01DX005 (ip), vehicle: saline with Tween-80
[2] = dose: 120.0 mg/kg/injection, schedule: Q01DX005 (ip), vehicle: saline with Tween-80
[3] = dose: 240.0 mg/kg/injection, schedule: Q01DX005 (ip), vehicle: saline with Tween-80
[4] = dose: 50.0 mg/kg/injection, schedule: Q01DX005 (ip), vehicle: saline with Tween-80
[5] = dose: 100.0 mg/kg/injection, schedule: Q01DX005 (ip), vehicle: saline with Tween-80
[6] = dose: 200.0 mg/kg/injection, schedule: Q01DX005 (ip), vehicle: saline with Tween-80

## CCC1CC(O)c2c(O)c3c(c(O)c2C1O)C(=O)c1cccc(O)c1C3=O (configuration not stated) (tested in a mixture with another compound)
dose: 0.25 mg/kg/injection, schedule: Q04DX003 (ip), vehicle: other
  T/C: 102 % of control
dose: 30.0 micrograms/kg/injection, schedule: Q01DX009 (ip), vehicle: other
  T/C: 107 % of control
dose: 60.0 micrograms/kg/injection, schedule: Q01DX009 (ip), vehicle: other
  T/C: 106 % of control
dose: 130.0 micrograms/kg/injection, schedule: Q01DX009 (ip), vehicle: other
  T/C: 98 % of control

## O=C(CNC(=O)c1ccccc1)N/N=C\c1c[nH]c2ccccc12
[1]
  T/C: 101 % of control
[2]
  T/C: 100 % of control
[3]
  T/C: 96 % of control

## CC1=CC(=O)OC12CCCC(C)(C)C2 (configuration not stated)
[4]
  T/C: 106 % of control
[5]
  T/C: 104 % of control
[6]
  T/C: 106 % of control

## [O-]c1nn(Cc2ccccc2)c2cccc[n+]12
dose: 100.0 mg/kg/injection, schedule: Q04DX002 (ip), vehicle: saline
  T/C: 103 % of control
dose: 200.0 mg/kg/injection, schedule: Q04DX002 (ip), vehicle: saline
  T/C: 99 % of control
dose: 400.0 mg/kg/injection, schedule: Q04DX002 (ip), vehicle: saline
  T/C: 100 % of control

## CCOC(=O)C1C(=O)N(C)C(=O)N1c1ccc(C)cc1 (configuration not stated)
[1]
  T/C: 98 % of control
[2]
  T/C: 87 % of control

## COC(=O)NC1C(=O)OC(C2OC2(C)C)C1(C)C (configuration not stated)
[1]
  T/C: 101 % of control and 100 % of control
[2]
  T/C: 101 % of control and 99 % of control
[3]
  T/C: 100 % of control and 99 % of control

## OC(c1ccccc1)C1CCNCC1 (configuration not stated) (tested in a mixture with another compound)
[1]
  T/C: 105 % of control
[2]
  T/C: 96 % of control
[3]
  T/C: 99 % of control

## c1ccc2c(c1)c1ccccc1c1n[se]nc21
dose: 15.0 mg/kg/injection, schedule: Q01DX005 (ip), vehicle: saline with Tween-80
  T/C: 90 % of control
dose: 30.0 mg/kg/injection, schedule: Q01DX005 (ip), vehicle: saline with Tween-80
  T/C: 90 % of control
[1]
  T/C: 98 % of control

## CC(=O)C1CC[C@@]2(C)C(CC[C@H]3[C@@H]4CCC[C@H]([C@H](C)O)[C@@]4(C)CC[C@@H]32)C1 (some centres not stated)
dose: 12.5 mg/kg/injection, schedule: Q01DX009 (ip), vehicle: Klucel (hydroxypropylcellulose) (HPC)
  T/C: 91 % of control
dose: 25.0 mg/kg/injection, schedule: Q01DX009 (ip), vehicle: Klucel (hydroxypropylcellulose) (HPC)
  T/C: 91 % of control
dose: 50.0 mg/kg/injection, schedule: Q01DX009 (ip), vehicle: Klucel (hydroxypropylcellulose) (HPC)
  T/C: 88 % of control

## COCCCNC(=S)N/N=C/c1cccc(OC)c1O
dose: 50.0 mg/kg/injection, schedule: Q01DX009 (ip), vehicle: saline with Tween-80
  T/C: 101 % of control
dose: 100.0 mg/kg/injection, schedule: Q01DX009 (ip), vehicle: saline with Tween-80
  T/C: 111 % of control
dose: 200.0 mg/kg/injection, schedule: Q01DX009 (ip), vehicle: saline with Tween-80
  T/C: 88 % of control

## Cc1ccc2c(NCCCCCCCCNc3c4ccccc4nc4c(C)c(C)ccc34)c3ccccc3nc2c1C
dose: 10.0 mg/kg/injection, schedule: Q01DX009 (ip), vehicle: other
  T/C: 156 % of control

## CN1CCCCC1CCN1c2ccccc2Sc2ccc(S(C)=O)cc21 (configuration not stated)
dose: 12.5 mg/kg/injection, schedule: Q01DX005 (ip), vehicle: saline
  T/C: 100 % of control and 102 % of control and 105 % of control
dose: 25.0 mg/kg/injection, schedule: Q01DX005 (ip), vehicle: saline
  T/C: 100 % of control and 105 % of control and 114 % of control
dose: 100.0 mg/kg/injection, schedule: Q01DX005 (ip), vehicle: saline
  T/C: 102 % of control and 103 % of control

## CCOC(=O)CNC(=O)NC(Cc1ccccc1)C(=O)OCC (configuration not stated)
[4]
  T/C: 107 % of control
[5]
  T/C: 97 % of control

## C/C(=N\[N+](C)(C)C)c1ccccc1
dose: 12.5 mg/kg/injection, schedule: Q04DX003 (ip), vehicle: saline with Tween-80
  T/C: 100 % of control
dose: 25.0 mg/kg/injection, schedule: Q04DX003 (ip), vehicle: saline with Tween-80
  T/C: 100 % of control
dose: 50.0 mg/kg/injection, schedule: Q04DX003 (ip), vehicle: saline with Tween-80
  T/C: 102 % of control
dose: 100.0 mg/kg/injection, schedule: Q04DX003 (ip), vehicle: saline with Tween-80
  T/C: 100 % of control

## O=C(Oc1ccc(C2c3cc(OC(=O)c4ccccc4)c(OC(=O)c4ccccc4)cc3CC3C(=O)OCC32)cc1OC(=O)c1ccccc1)c1ccccc1 (configuration not stated)
[4]
  T/C: 88 % of control
[6]
  T/C: 86 % of control
